Assay results reported in article PMC5762535, “Novel indazole-based small compounds enhance TRAIL-induced apoptosis by inhibiting the MKK7-TIPRL interaction in hepatocellular carcinoma” (Oncotarget, 2017).
Where two headings read alike, the source gives them in different places.

How the values were obtained:
[1] = MTT cell viability assay, Huh7 cells; format: cell-based, human; settings: human, Huh7 cells; Huh7, MTT, 10 µM, 24 hrs, without TRAIL; Supplementary Table 3; read-out: Cell viability assay Compound only
Protocol: (§1) Cell viability was assessed using a 3-(4,5-dimethylthiazol-2-yl)-2,5-diphenyltetrazolium bromide (MTT, Sigma-Aldrich, St. Louis, USA) assay. The cells were seeded at a density of 1 × 10^4 cells per well and treated with the lead compounds and/or TRAIL. After 24 or 48 h, MTT (2 mg/ml) was added to each well, and the absorbance was measured using a microplate reader (Bio-Rad, Hercules, USA) at 570 nm. The cell viability was calculated as the percentage of viable cells in the drug-treated group versus the untreated control using the following equation: cell viability (%) = [OD (drug)-OD (blank)]/[OD (control)-OD (blank)] × 100.

Huh7 cells = test: MTT cell viability assay, Huh7 cells; format: cell-based, human; settings: for reduction of cell viability of Huh7 cells by co-treatment with TRAIL, compared to TRAIL alone: 10 μM TRT-0029 or 20 μM TRT-0173 plus TRAIL; for reduction of cell viability of Huh7 cells by co-treatment with TRAIL, compared to TRAIL alone / effective working concentration: 24 h; for viability at 10 µM: Homo sapiens, Huh-7, Huh7, MTT, 24 hrs, with TRAIL, Supplementary Table 3, read-out: Cell viability assay Compound + TRAIL; for effective working concentration: Huh7 cells, various doses with and without TRAIL (100 ng/ml)
Protocol: as §1

HepG2 cells = test: MTT cell viability assay, HepG2 cells; format: cell-based, human; settings: 10 µM TRT-0029 or 20 µM TRT-0173 plus TRAIL 100 ng/ml, 24 h
Protocol: as §1

caspase-3 and PARP = test: Western blot of cleaved caspase-3 and PARP in Huh7 cells; format: cell-based, human; settings: lead compounds co-treated with TRAIL 100 ng/ml, TRAIL tested alone
Protocol: The cells were lysed in lysis buffer (50 mM Tris-HCl, pH 7.4, 150 mM NaCl, 1% Triton™ X-100, 0.1% SDS, 1 mM EDTA, 1 mM Na3VO4, 1 mM NaF, and protease inhibitor cocktail) and clarified by centrifugation at 14,000×g for 20 min at 4°C. The protein samples were then subjected to Western blotting with the indicated antibodies.

caspase-3 = test: Caspase 3 activity assay in Huh7 cells; format: cell-based, human; settings: for Caspase 3 activity Compound + TRAIL/Compound: each compound at its working concentration and time of the table
Protocol: The caspase 3 activity was measured using a caspase-3 luminescent assay kit (Promega, Madison, WI, USA), according to the manufacturer's instructions, and a luminescence plate reader (Molecular Devices Co., Sunnyvale, USA).

MKK7-TIPRL interaction = molecular target: T1, MKK7-TIPRL interaction (Homo sapiens, UniProt O14733+O75663); test: GST pull-down assay of MKK7-TIPRL in 293T cells; format: cell-based; settings: 10 μM TRT-0029 or 20 μM TRT-0173, 24 h
T1 sequence (O14733 1-419): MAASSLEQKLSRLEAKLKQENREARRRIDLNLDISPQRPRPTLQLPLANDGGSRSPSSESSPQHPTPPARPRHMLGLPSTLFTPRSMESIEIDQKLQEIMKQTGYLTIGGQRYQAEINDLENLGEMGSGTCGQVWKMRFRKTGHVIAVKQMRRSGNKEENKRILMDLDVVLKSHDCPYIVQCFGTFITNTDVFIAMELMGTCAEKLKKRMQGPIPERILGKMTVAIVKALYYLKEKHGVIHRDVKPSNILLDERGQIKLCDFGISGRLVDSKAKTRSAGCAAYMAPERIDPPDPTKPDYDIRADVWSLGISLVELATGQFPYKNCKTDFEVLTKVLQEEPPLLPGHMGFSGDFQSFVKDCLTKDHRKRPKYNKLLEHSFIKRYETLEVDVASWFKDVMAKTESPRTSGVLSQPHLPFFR
T1 sequence (O75663 1-272): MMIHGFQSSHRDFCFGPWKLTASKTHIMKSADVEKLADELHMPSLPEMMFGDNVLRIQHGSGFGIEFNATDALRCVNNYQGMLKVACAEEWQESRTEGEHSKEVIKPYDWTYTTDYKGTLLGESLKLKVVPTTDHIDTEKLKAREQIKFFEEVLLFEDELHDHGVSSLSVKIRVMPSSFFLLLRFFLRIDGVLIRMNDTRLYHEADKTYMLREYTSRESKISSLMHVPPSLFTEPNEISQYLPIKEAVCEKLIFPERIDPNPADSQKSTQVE
Protocol: The full-length cDNAs of human TIPRL and MKK7 were subcloned into the pCGN vector (W. Herr, Cold Spring Harbor Laboratory) and the pEBG vector containing a GST tag to construct the HA-tagged and the GST-tagged plasmids, respectively. 293T cells were transfected with expression vector constructs using the TurboFect Transfection Reagent (Thermo Fisher Scientific, Lafayette, USA) and then were lysed in RIPA buffer (50 mM Tris-HCl, 150 mM NaCl, 1% Triton™ X-100, 0.1% SDS, 1 mM EDTA, 1 mM Na3VO4, and 1 mM NaF) containing complete protease inhibitor cocktail (Roche Applied Science, Indianapolis, USA). Whole-cell extracts were incubated with Glutathione Sepharose 4B (GE Healthcare, Uppsala, Sweden), and the eluted GST-tagged proteins were subjected to Western blotting using the indicated antibodies.

Huh7 tumor xenografts = test: In vivo Huh7 xenograft assay; parameters: species or system BALB/c nude mice; settings: for tumor volume / tumor growth at 11 days, compound + TRAIL compared with compound alone: compound 30 mg/kg i.v. plus TRAIL 2.5 mg/kg i.p. daily; for reduction of average tumor mass, lead compound + TRAIL: compound 30 mg/kg i.v. plus TRAIL 2.5 mg/kg i.p. daily for 11 days, versus vehicle control
Source text: Five-week-old female BALB/c nude mice were purchased from SLC Japan and were maintained in accordance with the guidelines of the Institutional Review Committee for Animal Care and Use of the Korea Research Institute of Bioscience and Biotechnology. Protocol approval was obtained from the same committee.
Huh7 cells were harvested and subcutaneously injected (5 × 10^6 cells/mouse) into nude mice (N = 6/group for TRT-0173 or TRT-0029 experiments). When the tumor volume reached ~100 mm^3, the mice were divided into four groups and treated with vehicle, TRAIL (2.5 mg/kg, intraperitoneal), lead compound (TRT-0029 or TRT-0173, 30 mg/kg, intravenously), or lead compound (30 mg/kg, intravenously) combined with TRAIL (2.5 mg/kg, intraperitoneal) daily for 11 days (11 treatments in total). The tumor volumes were measured every 2 days for 11 days after treatment, and tumor volume was calculated according to the following equation: V (mm^3) = width^2 (mm^2) × length (mm)/2. Body weight and tumor mass were measured 11 days after treatment.

Pharmacokinetics in rats = format: in vivo, Sprague-Dawley rats; settings: rat; for AUC: male, Sprague-Dawley, plasma, after 24 h; for oral availability: 5 mg/kg i.v. and p.o.
Protocol: Male Sprague-Dawley rats anesthetized with ketamine were cannulated with polyethylene tubing in the femoral vein. A solution of lead compound (TRT-0029 or TRT-0173) was prepared by dissolving the compounds in a mixture of dimethyl sulfoxide (DMSO)/ polyethylene glycol 400 (PEG 400)/ distilled water (0.5: 4: 5.5), and was administered to rats by a bolus injection in the femoral vein. Blood samples were collected via the femoral vein 0, 2, 10, and 30 min, as well as 1, 2, 4, 6, 8, and 24 h after intravenous administration. For oral administration, blood was collected 0.25, 0.5, 1, 2, 4, 6, 8, and 24 h after treatment. The plasma fractions were prepared by centrifugation and were stored at −70°C before the liquid chromatography-tandem mass spectrometry (LC/MS/MS) analysis. The concentrations of target compound in the plasma were measured using LC-MS/MS (4000 QTRAP, AB SCIEX, Foster City, CA) in multiple reaction monitoring (MRM) mode. The PK parameters were determined with non-compartmental methods using Phoenix WinNolin (Pharsight, Mountain View, CA). The area under the plasma concentration-time curve (AUC) was calculated using the trapezoidal rule extrapolated to infinity. The terminal elimination half-life (t1/2), and the systemic clearance (CL) were obtained. The peak plasma concentration (Cmax) after oral administration was obtained by visual inspection of the plasma concentration-time plot of each rat.

[2] = iv, i.v. 5 mg/kg, read-out: AUC (i.v.)
[3] = po, p.o. 5 mg/kg, read-out: AUC (p.o.)

| interaction between MKK7 and TIPRL in GST pull-down assay, compared with untreated cells (MKK7-TIPRL interaction) | AUC (Pharmacokinetics in rats; [2]) [ng·h/mL] | AUC (Pharmacokinetics in rats; [3]) [ng·h/mL] | oral availability (Pharmacokinetics in rats) [%] | Structure (SMILES) | viability at 24 h, 10 µM [1] [%] | reduction of cell viability of Huh7 cells by co-treatment with TRAIL, compared to TRAIL alone (Huh7 cells) [%] | viability at 10 µM (Huh7 cells) [%] | effective working concentration (Huh7 cells) [µM] | decrease of HepG2 viability by co-treatment with TRAIL (HepG2 cells) [%] | apoptosis signals (cleaved caspase-3, PARP) by Western blotting (caspase-3 and PARP) | activity of caspase-3, co-treatment with TRAIL compared to compound alone or TRAIL alone (caspase-3; Huh7, 24 h) | Caspase 3 activity Compound + TRAIL/Compound (caspase-3) [ratio] | tumor volume / tumor growth at 11 days, compound + TRAIL compared with compound alone (Huh7 tumor xenografts) | reduction of average tumor mass, lead compound + TRAIL (Huh7 tumor xenografts) [%] |
| --- | --- | --- | --- | --- | --- | --- | --- | --- | --- | --- | --- | --- | --- | --- |
| significantly decreased the interaction | 10000 | 1220 | 11 | CC(=O)c1cc(-n2ncc3cc(NS(=O)(=O)c4ccccc4)ccc32)c(Cl)cc1Cl [TRT-0029] | 69 | ~90 | 11 | 10 | 36 | effectively activated apoptosis signals | significantly increased | 2.20 | significantly reduced | 64.5 |
| significantly decreased the interaction | 4270 | 1150 | 26.8 | COc1ccc(S(=O)(=O)Nc2ccc3c(cnn3-c3ccc(F)cc3)c2)cc1 [TRT-0173] | 53 | ~90 | 7 | 20 | 53 | activated apoptosis signals | – | 2.10 | moderately inhibited tumor growth | 42.2 |
